In patent publication US20130052162A1, “BOOSTING IMMUNE DEFENSE BY UPREGULATING CCAAT/ENHANCER BINDING PROTEIN EPSILON” (CEDARS-SINAI MEDICAL CENTER, priority 2010, published 2013):
Values joined by “and” are separate entries in the source; they are usually repeats but may differ in a detail not shown here. Equal values may be shown once. “Also recorded” adds a separate entry of the source.

Key:
CEBPE promoter region = assay: ChIP: histone H3 acetylation at CEBPE promoter in BMDM; assay type: cell-based, mouse; settings: WT BMDM, 1 mM NAM, 6-12 h, vs untreated, densitometry
Procedure: ChIP assay kit (Upstate Biotechnology, Lake Placid, N.Y.) was used, and chromatin was prepared for IP as instructed by the manufacturer. The sonicated chromatin was immunoprecipitated with either 5 μg of anti-acetylated histone H3 antibody or normal rabbit IgG antibody as negative control (Upstate Biotechnology). Immunoprecipitated DNA was subsequently analyzed by PCR using primers specific for the CEBPE promoter region; input chromatin was analyzed for β-actin mRNA as a positive control. The optimal reaction conditions for PCR were determined for each primer pair. Primers were denatured at 95° C. for 1 min and annealed at 60° C. for 1 min, followed by elongation at 72° C. for 1 min; each product was amplified 35 cycles. PCR products were analyzed by 2.5% agarose/ethidium bromide gel electrophoresis. […] The primers used for ChIP analysis were: human CEBPE 5′-GCTTTGGCCAAGCCCAGGGA-3′ (forward) (SEQ ID NO: 9), 5′-TGCTGGGCTCCACCTACCCC-3′ (reverse) (SEQ ID NO: 10); human β-actin: 5′-CTCCTCGGGAGCCACACGCA-3′ (forward) (SEQ ID NO: 1), 5′-TAGGGGAGCTGGCTGGGTGG-3′ (reverse) (SEQ ID NO: 12); murine CEBPE: 5′-TGAGGCTGCAGCTTGCCTGG-3′ (forward) (SEQ ID NO: 13), 5′-ACCAAGCTACCCCTGGCCCT-3′ (reverse) (SEQ ID NO: 14), murine β-actin: 5′-ACCTGTTACTTTGGGAGTGGCAAGC-3′ (forward) (SEQ ID NO: 15), 5′-GTCGTCCCAGTTGCTAACAATGCC-3′ (reverse) (SEQ ID NO: 16).

LF-promoter = assay: LF reporter gene (LAC-LUC) luciferase assay in U937 cells; assay type: cell-based, human; settings: 1 mM NAM, 16 h, vs PBS
Procedure: The inventors designed a −230 LF promoter reporter plasmid (LAC-LUC) including a C/EBP-binding site as previously described^15. For the reporter gene assay, 2×10^6 […] cells were transiently transfected either with 2 μg of the LAC-LUC luciferase reporter gene constructs or the empty-vector control (pGL3, Promega, Madison, Wis., USA), as well as 0.2 μg of Renilla luciferase (pRL-SV40). Transfections were performed using the nucleofection technique with the Amaxa-Kit (Invitrogen, Karlsruhe, Germany) according to the manufacturer's instructions. After 16 h of transfection, the cells were treated with NAM (1 mM) for an additional 16 h. The lysates were harvested and luciferase activity measured by the Dual-Luciferase reporter assay system (Promega, Madison, Wis., USA). For all transfection studies, luciferase activity was normalized using pRL-SV40 activity. Results represent the mean of three independent experiments performed in triplicate.

P. aeruginosa = assay: Human peripheral whole blood killing assay, P. aeruginosa; assay type: cell-based; settings: NAM-pretreated human blood
Procedure: This well described phagocytic survival assay has been previously reported^42. Bacteria was pelleted, washed twice, diluted to the specified inoculum in 25 μl PBS (without Ca^2+ and Mg^2+), and immediately mixed with 75 μl of freshly drawn human or murine peripheral whole blood in sterile heparinized 2 mL round-bottom Eppendorf tubes. When required, murine plasma was obtained by centrifugation of heparinized whole blood at 2000×g for 15 min at RT. Reactions (performed in minimum in triplicate) were incubated at 37° C. for 1-3 h on a rotary shaker, at which time ten-fold serial dilutions were plated on THA for enumeration of surviving CFU.
When required, freshly drawn human or murine peripheral blood was pretreated with NAM (˜0.1 mM or ˜10 mM) or PBS (without Ca^2+ and Mg^2+), prior to inoculation with bacteria.
Participants in the inventors' study included 15 healthy humans with a negative history of infection or antibiotic treatments in the prior 4 weeks. Peripheral blood was collected from individuals in a fasting condition. Polymorph-prep (Axis-Shield, Oslo, Norway) was used for the isolation of PMNs according to the manufacturer's protocol.

S. aureus = assay: Effect of NAM on growth and viability of S. aureus; assay type: cell-based, Staphylococcus aureus; settings: 6 h
Procedure: The inventors assessed whether NAM, at the concentrations used in the study, adversely affect the growth and viability of S. aureus. PBS was chosen as an inert non-growth medium, and THB was chosen as a suitable growth medium for S. aureus. Seventy-five microliters of NAM (1 mM and 10 mM final concentrations; in either THB or PBS) or THB or PBS alone (respective controls) were placed in sterile 2 mL round-bottom Eppendorf tubes, and then inoculated with S. aureus (˜1×10^4 CFU/mL in 25 μl of PBS or THB) and immediately briefly vortexed. Triplicate reactions were incubated at 37° C. for 1 h, 3 h, and 6 h on a rotary shaker at which time ten-fold serial dilutions were plated on THIA for enumeration of CFU.
In a different assay, S. aureus (˜1×10^8 CFU/mL in THB) was incubated with or without 50 mM NAM. This concentration represents the equivalent molarity of NAM used in the in vivo experiments. Triplicate 1 mL reactions were incubated at 37° C. on a rotary shaker and at various time points (6 h, 12 h, and 24 h) ten-fold serial dilutions were plated on THA for enumeration of CFU. This assay was performed on two independent occasions using inocula generated from three separate bacterial cultures.

[1] = CBC of peripheral whole blood of WT mice treated in vivo with NAM; parameters: species or system mouse
Procedure: WT mice treated in vivo with NAM (250 mg/kg/day; i.p.) or PBS (control) for a) 24 h, b) 48 h, and c) 72 h. Then, peripheral whole blood was removed from each of the mice and CBCs were performed. […] (Table 2A-C)

[2] = 24 h post-treatment, 250 mg/kg/d, individual mice, 250 mg/kg/day

Which results are given for `NC(=O)c1cccnc1` [NAM, Nicotinamide]?
increase in histone H3 acetylation at the CEBPE promoter (CEBPE promoter region): 5 fold; increase in LF reporter gene activity (LF-promoter): 2.5 fold; P. aeruginosa CFU recovered / outcome, NAM- vs PBS-treated blood (P. aeruginosa): improved the outcome of infection; also recorded: enhances clearance; direct anti-staphylococcal activity (CFU vs control) (S. aureus; 1 mM and 10 mM NAM in THB or PBS, 1 h, 3 h, no phagocytic cells): no direct anti-staphylococcal activity; also recorded: No differences; direct anti-staphylococcal activity (CFU vs control) (S. aureus; 50 mM NAM in THB, 12 h, 24 h): No difference in CFU; Hematological Abnormalities ([1]; 24 h post-treatment, 250 mg/kg/d, individual mice): Normal; LY [1, 2]: 3.97 K/uL and 1.89 K/uL and 3.84 K/uL and 76.92% and 67.88% and 71.36%; MO [1, 2]: 0.18 K/uL and 0.28 K/uL and 3.77% and 6.47% and 5.28%; NE [1, 2]: 0.95 K/uL and 0.65 K/uL and 1.00 K/uL and 18.47% and 23.40% and 18.67%; WBC [1, 2]: 5.16 K/uL and 2.78 K/uL and 5.38 K/uL; WBC, Mean ([1]; 24 h post-treatment, 250 mg/kg/d, mean of 10 mice): 3.63 K/uL; Hematological Abnormalities ([1]; 48 h post-treatment, 250 mg/kg/d, individual mice): Normal; WBC ([1]; 48 h post-treatment, 250 mg/kg/d, individual mice, 250 mg/kg/day): 6.34 K/uL and 1.86 K/uL and 3.30 K/uL and 4.64 K/uL and 2.70 K/uL; WBC, Mean ([1]; 48 h post-treatment, 250 mg/kg/d, mean of 5 mice): 3.77 K/uL; Hematological Abnormalities ([1]; 72 h post-treatment, 250 mg/kg/d, individual mice): Normal; WBC ([1]; 72 h post-treatment, 250 mg/kg/d, individual mice, 250 mg/kg/day): 2.20 K/uL and 4.08 K/uL and 5.66 K/uL and 2.24 K/uL and 3.62 K/uL and 6.22 K/uL and 3.06 K/uL and 5.48 K/uL; WBC, Mean ([1]; 72 h post-treatment, 250 mg/kg/d, mean of 8 mice): 4.07 K/uL; CBCs, NAM- vs PBS-treated mice ([1]; mouse, in vivo): No differences in CBCs
